Patent US10087188B2, “Benzamide imidazopyrazine Btk inhibitors” (MERCK SHARP & DOHME CORP., priority 2014, dated 2018)
Like-named read-outs stand apart in the source and are kept apart here.

Key:
[1] = tested on: HeLa cells; assay: [3H] Adenosine uptake assay; assay type: cell-based; conditions: accumulation of tritiated adenosine into HeLa cells, compound concentration range 10 μM to 0.032 nM, read-out: ADU inhibition IC50 (adenosine uptake inhibition potency)
Outline: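 Accumulation of tritiated adenosine in adherent HeLa cells, detected by scintillant-plate coincidence counting, gives IC50 via 4-parameter robust fit. Compound (constant 0.25% DMSO) applied 30 min ahead, then 60 min radiolabel exposure (added from 500 nM solution), ambient conditions, HBSS with 5% FBS.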

[2] = biological target: BTK enzyme (recombinant full-length BTK, hBTK) (Homo sapiens (Human), UniProt Q06187); assay: Btk enzyme activity assay, LANCE TR-FRET; assay type: biochemical; conditions: 50 pM hBTK, 2 μM biotin-A5-peptide, 25 μM ATP; 60 minute compound & enzyme incubation; read-out: BTK binding IC50
Chain of BTK enzyme (recombinant full-length BTK, hBTK) (Q06187 whole entry): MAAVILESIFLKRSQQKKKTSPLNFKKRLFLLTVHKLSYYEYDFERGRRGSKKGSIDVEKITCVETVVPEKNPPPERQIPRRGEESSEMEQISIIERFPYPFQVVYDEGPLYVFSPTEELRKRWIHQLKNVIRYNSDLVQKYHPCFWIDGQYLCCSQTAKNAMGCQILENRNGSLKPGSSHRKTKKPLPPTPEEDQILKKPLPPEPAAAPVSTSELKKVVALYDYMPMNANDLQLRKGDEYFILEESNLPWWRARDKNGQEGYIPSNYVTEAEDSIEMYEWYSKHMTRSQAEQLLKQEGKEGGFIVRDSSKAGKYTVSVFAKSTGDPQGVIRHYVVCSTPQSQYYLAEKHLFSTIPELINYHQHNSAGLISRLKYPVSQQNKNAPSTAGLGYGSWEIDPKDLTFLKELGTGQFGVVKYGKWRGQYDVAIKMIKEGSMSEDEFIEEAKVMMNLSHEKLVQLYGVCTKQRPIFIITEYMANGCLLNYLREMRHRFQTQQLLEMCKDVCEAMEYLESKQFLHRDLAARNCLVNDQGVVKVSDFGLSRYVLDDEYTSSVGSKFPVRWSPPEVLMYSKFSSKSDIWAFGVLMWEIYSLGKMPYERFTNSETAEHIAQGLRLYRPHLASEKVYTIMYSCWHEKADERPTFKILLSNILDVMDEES
Procedure: Btk Enzyme Activity Assay Methods
BTK enzymatic activity was determined with the LANCE (Lanthanide Chelate Excite) TR-FRET (Time-resolved fluorescence resonance energy transfer) assay. […] After 60 minutes incubation with detection reagents, reaction plates were read on a PerkinElmer EnVision plate reader using standard TR-FRET protocol.

IC50 ([1]; Homo sapiens, HeLa) | IC50 [2] | IC50 [1] | Structure (SMILES)
5100 nM | 1.7 nM | – | CC(C)(C(=O)O)C1CCC(c2nc(-c3ccc(C(=O)Nc4cc(C(F)(F)F)ccn4)cc3)c3c(N)nccn23)C1 (stereo not drawn) [Example 95, 2-{3-[8-amino-1-(4-{[4-(trifluoromethyl)pyridin-2-yl]carbamoyl}phenyl)imidazo[1,5-a]pyrazin-3-yl]cyclopentyl}-2-methylpropanoic acid]
– | 4 nM | 10000 nM | CC(C)(C(=O)O)C1CCC(c2nc(-c3ccc(C(=O)Nc4cc(C(F)(F)F)ccn4)cc3)c3c(N)nccn23)C1 (stereo not drawn) [Example 96, 2-{3-[8-amino-1-(4-{[4-(trifluoromethyl)pyridin-2-yl]carbamoyl}phenyl)imidazo[1,5-a]pyrazin-3-yl]cyclopentyl}-2-methylpropanoic acid]
– | 0.87 nM | 7530 nM | CC(C)(C(=O)O)C1CCC(c2nc(-c3ccc(C(=O)Nc4cc(C(F)(F)F)ccn4)cc3)c3c(N)nccn23)C1 (stereo not drawn) [Example 97, 2-{3-[8-amino-1-(4-{[4-(trifluoromethyl)pyridin-2-yl]carbamoyl}phenyl)imidazo[1,5-a]pyrazin-3-yl]cyclopentyl}-2-methylpropanoic acid]
8770 nM | 4 nM | – | CCOc1cc(C(=O)Nc2cc(C(F)(F)F)ccn2)ccc1-c1nc([C@@H]2CC[C@H](C(C)C)[C@H](C(=O)O)C2)n2ccnc(N)c12 [Example 98, (1R,2R,5R)-5-[8-amino-1-(2-ethoxy-4-{[4-(trifluoromethyl)pyridin-2-yl]carbamoyl}phenyl)imidazo[1,5-a]pyrazin-3-yl]-2-(1-methylethyl) cyclohexane-carboxylic acid]
4720 nM | 0.54 nM | – | CCOc1cc(C(=O)Nc2cc(C(F)(F)F)ccn2)ccc1-c1nc(C23CCC(C(=O)O)(CC2)C2CC23)n2ccnc(N)c12 (stereo not drawn) [Example 100, 5-[8-amino-1-(2-ethoxy-4-{[4-(trifluoromethyl)pyridin-2-yl]carbamoyl}phenyl)imidazo[1,5-a]pyrazin-3-yl]tricyclo[3.2.2.0~2,4~] nonane-1-carboxylic acid]
10000 nM | 2 nM | – | CCOc1cc(C(=O)Nc2cc(C(F)(F)F)ccn2)ccc1-c1nc([C@H]2CC[C@@H](C(C)C)[C@@H](C(=O)O)C2)n2ccnc(N)c12 [Example 101, (1S,2S,5S)-5-[8-amino-1-(2-ethoxy-4-{[4-(trifluoromethyl)pyridin-2-yl]carbamoyl}phenyl)imidazo[1,5-a]pyrazin-3-yl]-2-(1-methylethyl) cyclohexane-carboxylic acid]
1880 nM | 0.52 nM | – | CCOc1cc(C(=O)Nc2cc(C(F)(F)F)ccn2)ccc1-c1nc(C23CCC(C(=O)O)(CC2)C3)n2ccnc(N)c12 [Example 103, 4-[8-amino-1-(2-ethoxy-4-{[4-(trifluoromethyl)pyridin-2-yl]carbamoyl}phenyl)imidazo[1,5-a]pyrazin-3-yl]bicyclo[2.2.1] heptane-1-carboxylic acid]
10000 nM | 5.2 nM | – | CCOc1cc(C(=O)Nc2cc(C(F)(F)F)ccn2)ccc1-c1nc([C@H]2C[C@H]3CC[C@@H](C2)[C@H]3C(=O)O)n2ccnc(N)c12 [Example 104, (3-endo,8-syn)-3-[8-amino-1-(2-ethoxy-4-{[4-(trifluoromethyl)pyridin-2-yl]carbamoyl}phenyl)imidazo[1,5-a]pyrazin-3-yl]bicyclo[3.2.1] octane-8-carboxylic acid]
10000 nM | 1.9 nM | – | CCOc1cc(C(=O)Nc2cc(C(F)(F)F)ccn2)ccc1-c1nc([C@@H]2C[C@H]3CC[C@@H](C2)[C@H]3C(=O)O)n2ccnc(N)c12 [Example 105, (3-exo,8-syn)-3-[8-amino-1-(2-ethoxy-4-{[4-(trifluoromethyl)pyridin-2-yl]carbamoyl}phenyl)imidazo[1,5-a]pyrazin-3-yl]bicyclo[3.2.1] octane-8-carboxylic acid]
781 nM | 0.74 nM | – | CC(C)[C@]1(C(=O)O)CC[C@@H](c2nc(-c3ccc(C(=O)Nc4cc(C(F)(F)F)ccn4)cc3)c3c(N)ncc(Cl)n23)C1 [Example 106, (1S.3R)-3-[8-amino-5-chloro-1-(4-{[4-(trifluoromethyl)pyridin-2-yl]carbamoyl}phenyl)imidazo[1,5-a]pyrazin-3-yl]-1-(1-methylethyl) cyclopentane-carboxylic acid]
1390 nM | 3.2 nM | – | CC(C)[C@@]1(C(=O)O)CC[C@H](c2nc(-c3ccc(C(=O)Nc4cc(C(F)(F)F)ccn4)cc3)c3c(N)ncc(Cl)n23)C1 [Example 107, (1R,3S)-3-[8-amino-5-chloro-1-(4-{[4-(trifluoromethyl)pyridin-2-yl]carbamoyl}phenyl)imidazo[1,5-a]pyrazin-3-yl]-1-(1-methylethyl) cyclopentane-carboxylic acid]
6690 nM | 0.73 nM | – | COc1cc(C(=O)Nc2cc(C(F)(F)F)ccn2)cc(F)c1-c1nc(C23CCC(C(=O)O)(CC2)CC3)n2ccnc(N)c12 [Example 108, 4-[8-amino-1-(2-fluoro-6-methoxy-4-{[4-(trifluoromethyl)pyridin-2-yl]carbamoyl}phenyl)imidazo[1,5-a]pyrazin-3-yl]bicyclo[2.2.2] octane-1-carboxylic acid]
6840 nM | 0.64 nM | – | CCOc1cc(C(=O)Nc2cc(C(F)(F)F)ccn2)ccc1-c1nc([C@@H]2CC[C@@](C(=O)O)(C(C)C)C2)n2c(Cl)cnc(N)c12 [Example 109, (1S,3R)-3-[8-amino-5-chloro-1-(2-ethoxy-4-{[4-(trifluoromethyl)pyridin-2-yl]carbamoyl}phenyl)imidazo[1,5-a]pyrazin-3-yl]-1-(1-methylethyl)cyclo-pentanecarboxylic acid]
4750 nM | 2.1 nM | – | CCOc1cc(C(=O)Nc2cc(C(F)(F)F)ccn2)ccc1-c1nc([C@H]2CC[C@](C(=O)O)(C(C)C)C2)n2c(Cl)cnc(N)c12 [Example 110, (1R,3S)-3-[8-amino-5-chloro-1-(2-ethoxy-4-{[4-(trifluoromethyl)pyridin-2-yl]carbamoyl}phenyl)imidazo[1,5-a]pyrazin-3-yl]-1-(1-methylethyl) cyclopentane-carboxylic acid]
10000 nM | 24.9 nM | – | CCOc1cc(C(=O)Nc2cc(C(F)(F)F)ccn2)ccc1-c1nc([C@H]2CC[C@@](C(=O)O)(C(C)C)C2)n2c(Cl)cnc(N)c12 [Example 111, (1S,3S)-3-[8-amino-5-chloro-1-(2-ethoxy-4-{[4-(trifluoromethyl)pyridin-2-yl]carbamoyl}phenyl)imidazo[1,5-a]pyrazin-3-yl]-1-(1-methylethyl) cyclopentane-carboxylic acid]
10000 nM | 21.7 nM | – | CCOc1cc(C(=O)Nc2cc(C(F)(F)F)ccn2)ccc1-c1nc([C@@H]2CC[C@](C(=O)O)(C(C)C)C2)n2c(Cl)cnc(N)c12 [Example 112, (1R,3R)-3-[8-amino-5-chloro-1-(2-ethoxy-4-{[4-(trifluoromethyl)pyridin-2-yl]carbamoyl}phenyl)imidazo[1,5-a]pyrazin-3-yl]-1-(1-methylethyl) cyclopentane-carboxylic acid]
5940 nM | 0.48 nM | – | CCOc1cc(C(=O)Nc2cc(C(F)(F)F)ccn2)cc(F)c1-c1nc([C@@H]2CC[C@](C)(C(=O)O)C2(C)C)n2ccnc(N)c12 [Example 113, (1S,3R)-3-[8-amino-1-(2-ethoxy-6-fluoro-4-{[4-(trifluoromethyl)pyridin-2-yl]carbamoyl}phenyl)imidazo[1,5-a]pyrazin-3-yl]-1,2,2-trimethylcyclopentane carboxylic acid]
2750 nM | 0.92 nM | – | CCOc1cc(C(=O)Nc2cc(C(F)(F)F)ccn2)c(F)cc1-c1nc([C@@H]2CC[C@](C)(C(=O)O)C2(C)C)n2ccnc(N)c12 [Example 114, (1S,3R)-3-[8-amino-1-(2-ethoxy-5-fluoro-4-{[4-(trifluoromethyl)pyridin-2-yl]carbamoyl}phenyl)imidazo[1,5-a]pyrazin-3-yl]-1,2,2-trimethylcyclopentane carboxylic acid]
8840 nM | 0.26 nM | – | COc1cc(C(=O)Nc2cc(C(F)(F)F)ccn2)cc(F)c1-c1nc([C@@H]2CC[C@](C)(C(=O)O)C2(C)C)n2ccnc(N)c12 [Example 115, (1S,3R)-3-[8-amino-1-(2-fluoro-6-methoxy-4-{[4-(trifluoromethyl)pyridin-2-yl]carbamoyl}phenyl)imidazo[1,5-a]pyrazin-3-yl]-1,2,2-trimethylcyclopentane carboxylic acid]
– | 22 nM | 1140 nM | CCOc1cc(C(=O)Nc2cc(C(F)(F)F)ccn2)ccc1-c1nc([C@@H]2CC[C@@H](C(=O)O)O2)n2ccnc(N)c12 [Example 116, (2S,5S)-5-[8-amino-1-(2-ethoxy-4-{[4-(trifluoromethyl)pyridin-2-yl]carbamoyl}phenyl)imidazo[1,5-a]pyrazin-3-yl]tetrahydrofuran-2-carboxylic acid]
– | 8.7 nM | 3050 nM | CCOc1cc(C(=O)Nc2cc(C(F)(F)F)ccn2)ccc1-c1nc([C@@H]2CC[C@@H](C(=O)O)O2)n2ccnc(N)c12 [Example 117, (2S,5S)-5-[8-amino-1-(2-ethoxy-4-{[4-(trifluoromethyl)pyridin-2-yl]carbamoyl}phenyl)imidazo[1,5-a]pyrazin-3-yl]tetrahydrofuran-2-carboxylic acid]
